Consider 23 molecules from patent US8101612B2, “Phthalazine compounds and methods of use” (Amgen Inc., priority 2006, dated 2012).

Test [1] can be described thus: AA2734_IC50_IP (Table 4, assay code not explained). The conditions noted are these: internal assay code.
Test [2] can be described thus: AA5225_IC50_IP (Table 4, assay code not explained). The note with it: internal assay code.

For the molecule `Cc1ccc(C(=O)NC2CC2)cc1-c1ccc2c(C3(C(F)(F)F)CC3)nncc2c1` [Example 225, N-cyclopropyl-4-methyl-3-(1-(1-(trifluoromethyl)cyclopropyl)-6-phthalazinyl)benzamide], the IC50 (in general, the concentration at which inhibition is half-maximal) in test [1] came to 0.148 nM; in test [2] it was 0.968 nM.
For `Cc1ccc(C(=O)Nc2ccnn2C)cc1-c1ccc2c(C3(C(F)(F)F)CC3)nncc2c1` [Example 226, 4-methyl-N-(1-methyl-1H-pyrazol-5-yl)-3-(1-(1-(trifluoromethyl)cyclopropyl)-6-phthalazinyl)benzamide], in that order: 0.173 nM and 1.12 nM.
For `Cc1ccc(C(=O)NC2CC2)cc1-c1ccc2c([C@@H](C)C(F)(F)F)nncc2c1` [Example 227a, N-cyclopropyl-4-methyl-3-(1-((1R)-2,2,2-trifluoro-1-methylethyl)-6-phthalazinyl)benzamide], in that order: 0.455 nM and 1.08 nM.
With `Cc1ccc(C(=O)NC2CC2)cc1-c1ccc2c([C@@](C)(O)C(F)(F)F)nncc2c1` [Example 229, N-cyclopropyl-4-methyl-3-(1-((1R)-2,2,2-trifluoro-1-hydroxy-1-methylethyl)-6-phthalazinyl)benzamide], the results for the IC50 in test [1] and in test [2] were 0.383 nM and 0.599 nM, respectively.
For `Cc1ccc(C(=O)NC2CC2)cc1-c1ccc2c([C@](C)(O)C(F)(F)F)nncc2c1` [Example 230, N-cyclopropyl-4-methyl-3-(1-((1S)-2,2,2-trifluoro-1-hydroxy-1-methylethyl)-6-phthalazinyl)benzamide], in that order: 0.364 nM and 0.643 nM.
For `Cc1ccc(C#N)cc1-c1ccc2c(O[C@H](C)C(F)(F)F)nncc2c1` [Example 231, 4-methyl-3-(1-(((1R)-2,2,2-trifluoro-1-methylethyl)oxy)-6-phthalazinyl)benzonitrile], in that order: 33.3 nM and 80.8 nM.
Turning to `Cc1ccc(C#N)cc1-c1ccc2c(O)nncc2c1` [Example 232, 3-(1-hydroxy-6-phthalazinyl)-4-methylbenzonitrile], the IC50 in test [2] was found to be 1.33 nM.
With `Cc1ccc(C(=O)NC2CC2)cc1-c1ccc2c(-c3ccc(S(=O)(=O)C(F)(F)F)cc3C)nncc2c1` [Example 233, N-cyclopropyl-4-methyl-3-(1-(2-methyl-4-((trifluoromethyl)sulfonyl)phenyl)-6-phthalazinyl)benzamide], the values for the IC50 in test [1] and in test [2] were 2.89 nM and 0.62 nM, respectively.
The molecule `Cc1ccc(C(=O)Nc2ccnn2C)cc1-c1ccc2c(C(C)(O)C(F)(F)F)nncc2c1` (stereo not drawn) [Example 243, 4-methyl-N-(1-methyl-1H-pyrazol-5-yl)-3-(1-(2,2,2-trifluoro-1-hydroxy-1-methylethyl)-6-phthalazinyl)benzamide] displayed an IC50 in test [2] of 1.33 nM.
Consider `Cc1ccc(C(=O)NC2CC2)cc1-c1ccc2c(C(C)(O)C(F)(F)F)nncc2c1` (stereo not drawn) [Example 244, N-cyclopropyl-4-methyl-3-(1-(2,2,2-trifluoro-1-hydroxy-1-methylethyl)-6-phthalazinyl)benzamide], for which the IC50 is 0.434 nM in test [1] and 0.952 nM in test [2].
Turning to `Cc1ccc(C(=O)O)cc1-c1ccc2c(C(C)(C)O)nncc2c1` [Example 247, 3-(1-(1-hydroxy-1-methylethyl)-6-phthalazinyl)-4-methylbenzoic acid], the IC50 in test [2] turned out to be 1000 nM.
With `Cc1ccc(C(=O)NC2CC2)cc1-c1ccc2c(C(C)(C)O)nncc2c1` [Example 248, N-cyclopropyl-3-(1-(1-hydroxy-1-methylethyl)-6-phthalazinyl)-4-methylbenzamide], the results for the IC50 in test [1] and in test [2] were 0.826 nM and 0.812 nM, respectively.
For `Cc1ccc(C(=O)Nc2ccnn2C)cc1-c1ccc2c(C(C)(C)F)nncc2c1` [Example 249, 3-(1-(1-fluoro-1-methylethyl)-6-phthalazinyl)-4-methyl-N-(1-methyl-1H-pyrazol-5-yl)benzamide], in that order: 0.334 nM and 1.14 nM.
For `Cc1ccc(C(=O)Nc2ccnn2C)cc1-c1ccc2c([C@](C)(O)C(F)(F)F)nncc2c1` [Example 250, 4-methyl-N-(1-methyl-1H-pyrazol-5-yl)-3-(1-((1S)-2,2,2-trifluoro-1-hydroxy-1-methylethyl)-6-phthalazinyl)benzamide], the IC50 in test [1] was 0.296 nM; in test [2], 0.954 nM.
Consider `Cc1ccc(C(=O)Nc2ccnn2C)cc1-c1ccc2c([C@@](C)(O)C(F)(F)F)nncc2c1` [Example 251, 4-methyl-N-(1-methyl-1H-pyrazol-5-yl)-3-(1-((1R)-2,2,2-trifluoro-1-hydroxy-1-methylethyl)-6-phthalazinyl)benzamide], for which the IC50 in test [1] was found to be 0.2 nM; in test [2], 0.913 nM.
Take `Cc1ccc(C(=O)NC2CC2)cc1-c1ccc2c(C(C)(C)F)nncc2c1` [Example 252, N-cyclopropyl-3-(1-(1-fluoro-1-methylethyl)-6-phthalazinyl)-4-methylbenzamide]: the IC50 in test [1] was determined as 0.242 nM; in test [2] it was 0.745 nM.
For `Cc1c(F)cc(C(=O)NC2CC2)cc1-c1ccc2c(C(C)(C)F)nncc2c1` [Example 253, N-cyclopropyl-3-fluoro-5-(1-(1-fluoro-1-methylethyl)-6-phthalazinyl)-4-methylbenzamide], in that order: 0.168 nM and 0.696 nM.
Turning to `Cc1c(F)cc(C(=O)NC2CC2)cc1-c1ccc2c(O[C@H](C)C(F)(F)F)nncc2c1` [Example 254, N-cyclopropyl-3-fluoro-4-methyl-5-(1-(((1R)-2,2,2-trifluoro-1-methylethyl)oxy)-6-phthalazinyl)benzamide], the IC50 in test [1] amounted to 0.501 nM; in test [2] it was 0.769 nM.
For `Cc1c(F)cc(C(=O)NC2CC2)cc1-c1ccc2c(O[C@@H](C)C(F)(F)F)nncc2c1` [Example 255, N-cyclopropyl-3-fluoro-4-methyl-5-(1-(((1S)-2,2,2-trifluoro-1-methylethyl)oxy)-6-phthalazinyl)benzamide], in that order: 0.307 nM and 0.592 nM.
In the same order, the values of `Cc1ccc(C(=O)NC2CC2)cc1-c1ccc2c([C@H](C)C(F)F)nncc2c1` [Example 256, N-cyclopropyl-3-(1-((1S)-2,2-difluoro-1-methylethyl)-6-phthalazinyl)-4-methylbenzamide] are 0.18 nM and 1.03 nM.
With `CCNC(=O)c1ccc(C)c(-c2ccc3c(O[C@@H](C)C(F)(F)F)nncc3c2)c1` [Example 257, N-ethyl-4-methyl-3-(1-(((1S)-2,2,2-trifluoro-1-methylethyl)oxy)-6-phthalazinyl)benzamide], the IC50 in test [1] came out at 0.813 nM; in test [2], 1.02 nM.
In test [1], `CNC(=O)c1ccc(C)c(-c2ccc3c(O[C@@H](C)C(F)(F)F)nncc3c2)c1` [Example 258, N,4-dimethyl-3-(1-(((1S)-2,2,2-trifluoro-1-methylethyl)oxy)-6-phthalazinyl)benzamide] displayed an IC50 of 1.75 nM.
With `[2H]c1c([2H])c(C(=O)NC2CC2)c([2H])c(-c2ccc3c(OC(C)C(F)(F)F)nncc3c2)c1C` (stereo not drawn) [Example 259, N-cyclopropyl-4-methyl-3-(1-((2,2,2-trifluoro-1-methylethyl)oxy)-6-phthalazinyl)benzamide-d 3], the values for the IC50 in test [1] and in test [2] were 1.7 nM and 0.991 nM, respectively.
